# Results reported in US20130345243A1, “1H-PYROLLO[3,2-D]PYRIMIDINEDIONE DERIVATIVES” (GLAXOSMITHKLINE LLC, priority 2011, published 2013).
# Assays:
# [1] = tested on: ob/ob and db/db mice; details: 8 day administration; cited from earlier work
# [2] = tested on: Human recombinant AMPK; experiment: AMPK Enzymatic Assay (Z'Lyte FRET); type: biochemical; details: ATP 100 μM, peptide 2 μM, means of at least 2 independent experiments
# Method: Human recombinant AMPK (Invitrogen #PV4673 & #PV4675) is used in a FRET assay format (Z'Lyte—Invitrogen). Assay conditions are as follow: ATP 100 μM, peptide (Invitrogen # PR8650) 2 μM, 1% final DMSO in Z'Lyte kinase buffer. Reaction is initiated by addition of 0.2-0.8 ng of AMPK and incubated for 1-hour @ 30° C. A further 1-hour incubation @ 30° C. with the development reagent (Invitrogen # PR5194) is performed. FRET signal is then measured and converted to “% peptide phosphorylation” according to Z'Lyte given calculation procedure. Evaluation of compounds is carried out using concentration-response curves. Final data are expressed in “% activation” calculating the ratio of “% peptide phosphorylation” between compound-condition and basal-condition. Alternatively pEC200 (−Log(compound concentration leading to a 2-fold AMPK activity increase)) is produced through fitting of the concentration-response curves. All data are means of at least 2 independent experiments.
pEC50 [2],SMILES,reduces blood glucose [1] [%]
,NC(=O)c1ncn([C@@H]2O[C@H](CO)[C@@H](O)[C@H]2O)c1N [AICAR],35
6.2,"Cl.Nc1nc(-c2ccc(-n3c(Cl)cc4[nH]c(=O)n(-c5cccc(C(=O)O)c5)c(=O)c43)cc2)cs1 [Example 11, 3-(5-(4-(2-Aminothiazol-4-yl)phenyl)-6-chloro-2,4-dioxo-1H-pyrrolo[3,2-d]pyrimidin-3(2H,4H,5H)-yl)benzoic acid hydrochloride]",
6.1,"Nc1nc(-c2ccc(-n3c(Cl)cc4[nH]c(=O)n(-c5ccccc5F)c(=O)c43)cc2)cs1 [Example 12, 5-[4-(2-Amino-1,3-thiazol-4-yl)phenyl]-6-chloro-3-(2-fluorophenyl)-1H-pyrrolo[3,2-d]pyrimidine-2,4(3H,5H)-dione]",
